{
  "source": "patent US8906946B2",
  "about": "“TRPM8 receptor antagonists” (Dompe' S.p.A., priority 2011, dated 2014)",
  "key": {"[1]": {"tested_on": "rhythmic bladder contractions", "assay": "Isovolumetric bladder model, intravenous protocol", "assay_type": "in vivo, rat", "conditions": "10 mg/kg i.v., anesthetized female rats", "method": "Female rats were anesthetized with urethane. Ureters were ligated and sectioned. A catheter was inserted through the urinary meatus into the bladder before urethral ligature. Two protocols for testing compounds were used: intravenous (i.v.) or intravesical (i.ves.) administration.\nIn the first protocol, the bladder was filled by step of 100 μL of saline every 5 min until the occurrence of rhythmic bladder contractions (RBC). After a 30 min control period, compound (1) dissolved in solutol/NMP solution (2:1 w/w) at a dosage of 10 mg/kg, or vehicle were administered i.v (1 ml in 5 min) […] and the resulting effect was followed for 60 min. For each group, Micturition Frequency (MF) and Amplitude of Micturition (AM) were measured during the control and treatment periods."}, "[2]": {"tested_on": "hepatocytes", "assay": "Metabolic stability hepatocytes, rat", "assay_type": "in vitro ADME"}, "[3]": {"biological_target": "CYP3A4 (Homo sapiens, UniProt P08684)", "sequence (P08684 whole entry)": "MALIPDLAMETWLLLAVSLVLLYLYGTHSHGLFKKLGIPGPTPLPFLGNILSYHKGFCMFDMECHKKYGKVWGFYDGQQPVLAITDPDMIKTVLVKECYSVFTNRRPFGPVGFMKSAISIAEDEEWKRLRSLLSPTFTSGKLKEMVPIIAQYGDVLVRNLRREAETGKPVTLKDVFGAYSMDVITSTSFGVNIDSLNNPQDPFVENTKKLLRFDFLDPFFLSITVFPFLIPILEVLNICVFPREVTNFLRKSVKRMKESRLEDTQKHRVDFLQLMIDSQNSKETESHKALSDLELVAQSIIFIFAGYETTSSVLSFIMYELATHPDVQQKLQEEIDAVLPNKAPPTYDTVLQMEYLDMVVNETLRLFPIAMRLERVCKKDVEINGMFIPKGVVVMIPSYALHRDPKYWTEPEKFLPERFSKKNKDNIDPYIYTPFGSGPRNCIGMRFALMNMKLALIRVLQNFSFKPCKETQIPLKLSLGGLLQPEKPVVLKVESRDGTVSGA", "assay": "CYP inhibition 3A4", "assay_type": "in vitro ADME", "conditions": "3A4, 10 μM"}, "[4]": {"biological_target": "hERG (Homo sapiens, UniProt Q12809)", "sequence (Q12809 whole entry)": "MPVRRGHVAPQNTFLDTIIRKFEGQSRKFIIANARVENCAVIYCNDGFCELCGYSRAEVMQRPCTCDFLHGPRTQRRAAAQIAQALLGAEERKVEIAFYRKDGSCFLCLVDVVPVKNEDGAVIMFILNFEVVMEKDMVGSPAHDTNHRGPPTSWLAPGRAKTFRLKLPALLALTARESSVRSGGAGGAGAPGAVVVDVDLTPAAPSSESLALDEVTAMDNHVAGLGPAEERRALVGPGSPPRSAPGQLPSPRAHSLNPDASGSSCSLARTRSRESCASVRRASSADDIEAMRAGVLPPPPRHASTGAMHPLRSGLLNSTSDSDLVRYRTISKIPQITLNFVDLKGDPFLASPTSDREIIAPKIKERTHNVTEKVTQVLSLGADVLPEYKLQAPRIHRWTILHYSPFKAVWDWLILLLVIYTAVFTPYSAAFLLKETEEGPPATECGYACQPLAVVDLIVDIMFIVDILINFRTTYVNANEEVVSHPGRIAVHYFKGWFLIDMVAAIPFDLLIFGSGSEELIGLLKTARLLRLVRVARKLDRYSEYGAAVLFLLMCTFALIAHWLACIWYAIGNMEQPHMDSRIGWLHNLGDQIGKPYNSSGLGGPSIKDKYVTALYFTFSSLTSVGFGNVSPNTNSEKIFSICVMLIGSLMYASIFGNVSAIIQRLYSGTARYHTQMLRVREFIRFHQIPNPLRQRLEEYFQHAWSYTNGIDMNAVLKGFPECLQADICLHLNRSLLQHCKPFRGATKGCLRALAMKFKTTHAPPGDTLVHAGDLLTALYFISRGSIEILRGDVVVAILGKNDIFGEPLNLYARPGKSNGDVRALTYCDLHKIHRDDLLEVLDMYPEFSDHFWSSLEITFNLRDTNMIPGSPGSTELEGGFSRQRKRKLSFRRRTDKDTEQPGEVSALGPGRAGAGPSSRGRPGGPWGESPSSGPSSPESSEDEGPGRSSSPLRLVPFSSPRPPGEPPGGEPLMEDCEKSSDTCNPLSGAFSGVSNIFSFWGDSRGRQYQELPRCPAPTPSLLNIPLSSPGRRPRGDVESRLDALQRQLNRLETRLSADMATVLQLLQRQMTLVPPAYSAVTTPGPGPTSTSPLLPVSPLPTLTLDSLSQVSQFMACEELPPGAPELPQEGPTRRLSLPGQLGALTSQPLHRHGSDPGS", "assay": "hERG binding"}, "[5]": {"assay": "Plasma Protein Binding, rat", "assay_type": "in vitro ADME"}, "[6]": {"biological_target": "human TRPM8 (Homo sapiens, UniProt Q7Z2W7)", "sequence (Q7Z2W7 whole entry)": "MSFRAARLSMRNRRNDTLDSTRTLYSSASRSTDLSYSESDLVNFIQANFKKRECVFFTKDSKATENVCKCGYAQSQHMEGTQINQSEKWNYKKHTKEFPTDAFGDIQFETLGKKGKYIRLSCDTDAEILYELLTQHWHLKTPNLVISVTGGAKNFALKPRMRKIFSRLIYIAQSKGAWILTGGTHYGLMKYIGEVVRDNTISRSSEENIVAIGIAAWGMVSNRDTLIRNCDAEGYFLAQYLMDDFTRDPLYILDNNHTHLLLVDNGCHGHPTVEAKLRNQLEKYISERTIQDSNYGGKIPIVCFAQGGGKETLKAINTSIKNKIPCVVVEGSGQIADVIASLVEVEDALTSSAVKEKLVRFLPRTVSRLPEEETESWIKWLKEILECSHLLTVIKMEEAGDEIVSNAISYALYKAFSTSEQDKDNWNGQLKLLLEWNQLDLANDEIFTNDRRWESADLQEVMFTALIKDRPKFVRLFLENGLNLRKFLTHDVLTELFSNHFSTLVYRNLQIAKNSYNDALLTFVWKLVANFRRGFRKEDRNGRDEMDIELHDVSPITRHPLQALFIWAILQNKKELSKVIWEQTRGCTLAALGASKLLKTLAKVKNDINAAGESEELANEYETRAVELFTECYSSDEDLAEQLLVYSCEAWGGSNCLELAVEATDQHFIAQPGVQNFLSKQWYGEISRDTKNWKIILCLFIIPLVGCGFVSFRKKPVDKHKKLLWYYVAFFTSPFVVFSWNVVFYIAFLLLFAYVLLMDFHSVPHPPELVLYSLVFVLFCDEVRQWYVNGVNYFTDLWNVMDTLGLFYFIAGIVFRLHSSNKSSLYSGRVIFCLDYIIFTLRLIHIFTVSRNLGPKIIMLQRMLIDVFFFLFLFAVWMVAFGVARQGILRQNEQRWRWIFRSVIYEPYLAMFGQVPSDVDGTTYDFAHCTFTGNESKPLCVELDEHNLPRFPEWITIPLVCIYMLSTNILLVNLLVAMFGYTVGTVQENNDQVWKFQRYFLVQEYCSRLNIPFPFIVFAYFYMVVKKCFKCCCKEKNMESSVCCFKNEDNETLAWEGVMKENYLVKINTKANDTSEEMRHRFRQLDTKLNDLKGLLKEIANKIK", "assay": "High-throughput FLIPR TETRA calcium fluorescence assay for TRPM8 antagonists in HEK293/hTRPM8 cells", "assay_type": "cell-based", "set-up": "expressed in transfected cells", "conditions": "agonist Cooling Agent 10 at EC80, Ca2+ fluorescence", "excerpt": "A functional cell-based assay for the identification of TRPM8 receptor antagonists, optimised to allow high throughput screening at FLIPR^TETRA, was developed in HEK293 cells by stable pure clone selection and functional characterization with a fluorescent calcium sensitive dye.\nTRPM8 was cloned into the multiple clonig site of pcDNA3 mammalian expression vector; the obtained construct pcDNA3/hTRPM8 was fully sequence verified and used for the transfection of HEK293 cell line. HEK293 cells stably transfected with TRPM8 gene were maintained in Minimum essential medium. The cells were transfected with the pcDNA3/hTRPM8 vector by electroporation and then selected with medium containing 0.8 mg/ml G418 for 10-15 days.\nThe following commercial compounds were used as ligands: • Activator: Cooling Agent 10 (Takasago CAS N. 87061-04-9) • Blocker: Capsazepine (SIGMA cat #D—5879)\nThe experimental activities were performed using FLIPR^TETRA instruments.\nHEK293 cells stably transfected with TRPM8 gene were maintained in Minimum essential medium.\nThe TRPM8 cell line was analysed for the response to a library of compounds using a Ca^2+ mobilization-dependent fluorescence signal in 384 wells microtiter plate format. The analysis was performed using the FLIPR^TETRA (MDC) with the ICCD Camera.\nThe execution of the assay involved the use of three microtiter plates:\n1. Assay plate, containing cells loaded with dye and prepared as follows:\nCells were seeded at 15000 c/well in Poly-D-Lysine coated 384 wells Microtiter Plates in complete medium (25 μl/well).\n24 h after seeding, the cell plates were washed with Tyrode assay buffer by the Microplate Washer and 10 μL of Tyrode assay buffer was left in each well.\nCells were then loaded with 10 μL/well of the Fluo-4 NW dye solution by CyBi®-Well pipettor. Each bottle of Fluo4-NW dye (Molecular Probes cat. #F36206, component A) was re-suspended in 8 mL of Tyrode assay buffer and supplemented with 100 μL of water-soluble probenecid (MolecularProbes cat.#F36206, component B).\nDye loaded cell plates were incubated for 1 h at room temperature.\n2. Compound Dilution Plate (FIG. 1), containing diluted test compounds, formulated as follows: • Column 1: wells containing Assay Buffer plus DMSO 0.5% final • Column 2: wells alternating Max Signal Control in first injection (Maximum Response: Cooling Agent 10 at EC100, 100 μM) and Min Signal Control in first injection (Assay buffer plus 0.5% DMSO final); • Columns 3-22: wells containing Assay Buffer plus 0.5% DMSO final. To these wells the compounds to be tested were added at 3× concentration. • Column 23: alternating wells of Max Signal Control in second injection (Assay buffer) and Min Signal Control in second injection (Antagonist Capsazepine IC100, 50 μM) in Assay buffer plus 0.5% DMSO final; • Column 24: wells containing Capsazepine (Antagonist) at 8 concentrations in duplicate at final concentrations of […] in Assay buffer plus 0.5% DMSO final.\n3. Activator Plate (FIG. 2), containing agonist Cooling Agent 10 at EC80, formulated as follows: • Column 1: Cooling Agent 10 (Agonist) at 8 concentrations dose response in duplicate at final concentrations of […] in Assay buffer; • Columns 2-24: Cooling Agent 10 (Agonist) at EC80 (3 fold concentrated, 20 μM final) in Assay buffer.\nThe test was carried out according to a procedure comprising the following steps: • 1. The samples contained in the wells of the Compound Plate were added to the corresponding wells of the Assay Plate by the FLIPR^TETRA, thus resulting in the addition in Columns 3-22 of the test compounds at 3× concentration to the cells of the assay plates. No mixing was performed in the assay wells and the signal of the emitted fluorescence was recorded for 300 seconds. • 2."}},
  "note": "Where “and” joins values, the source holds several entries; their conditions need not be identical. Equal values may be shown once.",
  "data": [
    {"smiles": "Cl.Clc1c(OCCNCc2ccco2)ccc2ccccc12", "note": "[Compound 1, 2-[(1-chloronaphthalen-2-yl)oxy]-N-(furan-2-ylmethyl)ethanaminium chloride]", "values": [
      {"measurement": "time of inhibition of RBC, higher compared to vehicle group", "setting": "[1]", "result": "about 300 sec"},
      {"measurement": "reduction of Micturition Frequency (MF)", "setting": "[1]; first 30 min", "result": "about 36%"},
      {"measurement": "Metabolic stability hepatocytes (% remaining at 120 min @1 μM)", "setting": "[2]", "result": 5.0, "unit": "%"},
      {"measurement": "inhibition at 10 µM", "setting": "[3]", "result": 33.3, "unit": "%"},
      {"measurement": "hERG binding @10 μM", "setting": "[4]", "result": "No effect"},
      {"measurement": "fraction unbound at 10 μM", "setting": "[5]", "result": 0.03},
      {"measurement": "IC50", "setting": "[6]", "result": "< 10000 nM and 70 nM"}
    ]}
  ]
}
